Measured values reported in US7776826B2, “Method for fostering bone formation and preservation” (Unigene Laboratories, Inc., priority 2004, dated 2010).

How the values were obtained:
Type in all cases: in vivo, rat
Male Sprague-Dawley rats [1] = assay: Serum osteocalcin concentration at day 21, Groups K-R
Text: FIG. 12 provides a measurement of the serum osteocalcin concentration (in ng/ml) in the blood of the rats in Groups K-R when the rats were sacrificed 21 days after commencement of treatment. The meaning of the abbreviated terms is the same as in FIGS. 10 and 11. […] [*=p value<0.05, while **=p value<0.01];
FIG. 12 is a bar graph which sets forth the osteocalcin levels determined, at the time of sacrifice, in the blood serum of the rats which were the subject of the analyses illustrated in FIGS. 10 and 11. As indicated above, it is well known that osteocalcin is a biochemical marker indicative of new bone growth.
The table additionally includes the standard deviations for the values obtained for each analysis, which standard deviations are also included in FIG. 12.

Male Sprague-Dawley rats [2] = assay: PIXIMUS (DEXA) analysis of femur distal marrow cavity BMD after left femur bone marrow ablation (bmx), Groups A-J
Text: FIG. 1 is a graphical representation of the results of a PIXIMUS analysis of the femur distal marrow cavity bone mineral density (“BMD”) of groups of laboratory rats which were sacrificed at one-week intervals during a three-week test regimen. The PIXIMUS analyzer is available from Lunar Corp., Palo Alto, Calif. and provides Dual Energy X-Ray Absorptiometry (“DEXA”) data for small animals such as mice and rats. Male Sprague-Dawley rats (5 animals per group) aged 9 weeks were sacrificed and tested at time 0 and after 1, 2 and 3 weeks. The various groups were subjected to the following treatment modalities: Group A—left femur control; Group B—left femur sham; Group C—mechanical bone marrow ablation (bmx) to alter the contents of the bone marrow cavity of the left femur; Group D—mechanical bone marrow ablation treatment (bmx) of the left femur, coupled with the administration of an amidated parathyroid hormone truncate (PTH[1-34]-NH2) during days 1-21; and Group E—a right (non-bmx) femur BMD measurement of rats treated during days 1-21 with an amidated parathyroid hormone truncate (PTH[1-34]-NH2) wherein the rat's left femur had undergone a bone ablation (bmx) treatment;
FIG. 2 is a graphical representation of the results of a PIXIMUS analysis of the femur distal marrow cavity BMD of a second set of groups of male Sprague-Dawley rats (5 animals per group) aged 9 weeks which were sacrificed and tested at time 0 and after 1, 2 and 3 weeks. The various groups were subjected to the following treatment modalities: Group F—left femur control; Group G—left femur sham; Group H—mechanical bone marrow ablation (bmx) to alter the contents of the bone marrow cavity of the left femur; Group I—mechanical bone marrow ablation (bmx) of the left femur, coupled with administration of an amidated parathyroid hormone truncate (PTH[1-34]-NH2) during days 1-7, followed by the administration of a salmon calcitonin (sCT) antiresorptive agent during days 7-21; and Group J—a right femur BMD measurement of rats treated with an amidated parathyroid hormone truncate (PTH[1-34]-NH2) wherein the rat's left femur had undergone a bone marrow ablation (bmx) treatment;
Absent the bone anabolic agent, the initial burst of bone formation is quickly followed by the resorption of newly formed bone by osteoclasts (see, e.g., the Group C curve in FIG. 1). […] Table 1 (below) sets forth the values upon which the curves obtained with Groups A-E in FIG. 1 are based. As no readings were taken for the Control (Group A) and Sham (Group B) groups at Week 1 and Week 2, these values were estimated for purposes of preparing the curves for these two Groups. Table 1, moreover, provides the standard deviations for the values obtained in each Group, which standard deviations are also indicated in FIG. 1.
As indicated herein the bmx treatment was always administered to the rats' left femur and never to the right femur. The non-ablated contralateral femur was analyzed, however, throughout the testing protocols described herein as a control used for detecting the systemic effect of the bone anabolic agent. That is, the results achieved with the contralateral (right) femur permit one to exclude the effect attributable to the bmx treatment. Moreover, analysis of the rats' right femur control also enabled the inventors to determine whether the bmx treatment of the left femur had any effect on other skeletal sites located within the body of the rat.
FIG. 2 is provided to illustrate, inter alia, the further beneficial effect achieved due to the overlapping (i.e., with PTH administration) or subsequent administration of the antiresorptive agent salmon calcitonin (sCT). First, a comparison of the curves obtained with Group H (bmx alone) and Group J (PTH+sCT with no bmx) to that obtained with Group I (bmx PTH+sCT) provide still further evidence of the synergistic effect attributable to the use of the method of the invention. […]

Male Sprague-Dawley rats [3] = assay: Serum osteocalcin concentration on day of sacrifice, Groups A-J; conditions: bmx rats; for serum osteocalcin level, in words: up to 21 days; for Osteocalcin mean: serum
Text: FIG. 5 provides a series of measurements of the serum osteocalcin concentration (in ng/ml) in the blood of the rats which are the subjects of FIGS. 3-4 on the day of sacrifice. The meaning of the abbreviations is the same as that in FIGS. 3-4;
FIG. 5 provides a graphical representation of the osteocalcin levels determined, at the time of sacrifice, in the serum of rats subjected to the following treatment modalities: bmx+PBS; bmx+ parathyroid hormone (PTH[1-34]-NH2); bmx+salmon calcitonin (CT); and bmx+ parathyroid hormone (PTH[1-34]-NH2)+CT. It is well known by those of ordinary skill in this art that osteocalcin is a biochemical marker related to the number of osteoblasts, i.e, a measure of new bone growth, which may be measured in the blood serum of the animal. […] That is, administering CT reduces the rate of bone turn-over.
Table 4 additionally provides the standard deviations for the values obtained during each of the indicated analyses, which standard deviations are also indicated in FIG. 5.
On the day of sacrifice, each rat was euthanized in a CO2 chamber. The rat's blood was then collected via a cardiac puncture. The femurs were removed and fixed in a 4% formalin solution, after which they were dehydrated in a graded series of ethanol solutions.
The bones were thereafter subjected to a variety of sample analysis techniques. These included X-ray analysis wherein the femurs were X-rayed in individually sealed plastic bags; PIXIMUS analysis using a Lunar PIXIMUS scanner to measure bone mineral density in the bone marrow cavity of the femurs; MicroCT analysis; and blood analysis for osteocalcin, PTH, CT, NTX and growth factors.

Substance | osteocalcin level, in words (Male Sprague-Dawley rats [1]; bmx + agent daily for 21 days) | Osteocalcin mean (Male Sprague-Dawley rats [1]; bmx rats, day 21, agent daily for 21 days, Groups K-R) [ng/mL] | bone formation / resorption by DEXA BMD curves, in words (Male Sprague-Dawley rats [2]; left femur with bmx) | BMD (DEXA) (Male Sprague-Dawley rats [2]; left femur with bmx, Week 0) | BMD (DEXA) (Male Sprague-Dawley rats [2]; left femur with bmx, Week 1) | BMD (DEXA) (Male Sprague-Dawley rats [2]; left femur with bmx, Week 2) | BMD (DEXA) (Male Sprague-Dawley rats [2]; left femur with bmx, Week 3) | BMD (DEXA) (Male Sprague-Dawley rats [2]; right (non-bmx) femur, Week 0) | BMD (DEXA) (Male Sprague-Dawley rats [2]; right (non-bmx) femur, Week 1) | BMD (DEXA) (Male Sprague-Dawley rats [2]; right (non-bmx) femur, Week 2) | BMD (DEXA) (Male Sprague-Dawley rats [2]; right (non-bmx) femur, Week 3) | serum osteocalcin level, in words (Male Sprague-Dawley rats [3]) | Osteocalcin mean (Male Sprague-Dawley rats [3]; Day 0) [ng/mL] | Osteocalcin mean (Male Sprague-Dawley rats [3]; Day 7) [ng/mL] | Osteocalcin mean (Male Sprague-Dawley rats [3]; Day 14) [ng/mL] | Osteocalcin mean (Male Sprague-Dawley rats [3]; Day 21) [ng/mL]
PTH[1-34]-NH2 | highest osteocalcin level | 141.5 | unexpected increase in degree, speed and longevity of bone formation | 0.096 ± .007 gm/cm^2 | 0.166 ± .004 gm/cm^2 | 0.200 ± .030 gm/cm^2 | 0.190 ± .008 gm/cm^2 | 0.097 ± .008 gm/cm^2 | 0.124 ± .007 gm/cm^2 | 0.141 ± .007 gm/cm^2 | 0.154 ± .007 gm/cm^2 | highest and most consistent level of osteocalcin | 108.2 | 125.5 | 125.4 | 117.8
salmon calcitonin [CT, reference compound] | – | – | significantly diminishes the proportion of the newly formed bone which is resorbed | – | – | – | – | – | – | – | – | relatively steady state value of osteocalcin | 108.2 | 100.5 | 101 | 69.5
